What was measured:
Assay type in all cases: cell-based, human
[1] = system: p-XRCC1; assay: Immunostaining of SSB repair protein; settings: A549, 10 μM, 24 h
Description: (§1) The serine 139-phosphorylated form of chromatin-associated histone H2AX, namely γ-H2AX, is a key marker of cellular response to DDR, particularly DSBs. […] Obviously, pre-treatment of NAC could considerably alleviate the DDR triggered by complex 3 (Figure 5B). Therefore, we came to a conclusion that complex 3 caused DDR especially DSBs in A549 cells, which might happen after the increased level of intracellular ROS. In order to reveal the mechanisms underlying the enhanced DNA damage, complex 3 was studied to learn whether it could reduce the activation of DNA repair response including the co-localization of DSB repair protein MDC1/Aprataxin within nucleus. […] In order to reveal the mechanisms underlying DNA damage, complex 3 was studied to detect whether it could suppress the activation of DNA single strand break repair via the phosphorylation of SSB repair mediator/adaptor proteins XRCC1 within nucleus.
(§2) For assessment of DSBs repair kinetics we detected the total nuclear volume for an average of 50–60 nuclei per time points and cell type. Briefly, A549 cells were grown to confluence in 35 mm petri-dishes with 0.17 mm glass bottom. […] Non-specific binding was blocked by incubation with 5% FCS/PBS/0.1% Triton X-100 for 1 h at RT. […] Numbers of γH2AX foci were counted in 50–60 nuclei and plotted over time as previously described.

[2] = system: MDC1/Aprataxin; assay: Immunostaining of DSB repair proteins; settings: A549, 10 μM, 24 h
Description: as §1, §2

[3] = system: MCF-7; assay: MTT cytotoxicity assay; settings: exposed for 48 h
Description: Human cancer cell lines HepG2, SGC-7901, HCT-116, A549, NCI-H1299 and MCF-7 as well as normal liver cell line L02 were purchased from the Cell Bank of Shanghai Institute of Cell Biology. Among them, MCF-7, HepG2 cells were cultured at 37 °C in 5% CO2 with DMEM supplemented with 10% fetal bovine serum (FBS) (Hyclone, Lifescience, USA) and 1% penicillin/streptomycin (Beyotime, Nantong, China), while HCT-116, SGC-7901, A549, NCI-H1299 and L02 cells were cultured at 37 °C in 5% CO2 with RPMI-1640 supplemented with 10% FBS and 1% penicillin/streptomycin. Cells were passed every 2 days and restarted from frozen stocks upon reaching pass number 20.
In vitro cytotoxicity of the platinum compounds against human hepatocellular carcinoma (HepG-2), gastric carcinoma (SGC-7901), non-small-cell lung cancer (A549), and colorectal cancer (HCT-116) cell lines were measured by the MTT assays. Briefly, the cells were seeded in 96-well cultured plates at a density of 5000 cells/well. After overnight incubation (16 h), the cells were treated with the platinum complexes. […] The cell viability was evaluated by measurement of the absorbance at 490 nm, using an Absorbance Reader (BioRad). […] The reading values were converted to the percentage of control (% cell survival). Cytotoxic effects were expressed as IC50 values.

[4] = system: γ-H2AX; assay: Nuclear γH2AX foci analysis; settings: A549, 8 h and 12 h
Description: as §1, §2

[5] = system: A549 and NCI-H1299 cancer cells; assay: Colony formation assay; settings: A549 and NCI-H1299, 7 days
Description: Cells were trypsinized and plated at a density of 500 perplate. […] Cells were then fixed with 3% paraformaldehyde, stained with crystal violet and imaged with a light microscope. The experiment was performed in triplicate. The number of colonies, defined as containing > 50 cells, was counted.

[6] = system: A549 cells; assay: Autophagy by acridine orange flow cytometry (AVOs)
Description: (§3) The role of complex 3-induced autophagy in cell death was further analyzed (Figure 6). When A549 cancer cells were treated with complex 3 of 10 μM, the protein expression of LC3-II was increased (Figure 6A). […] Treatment with complex 3 for 24 h caused a 4.5-folds increase in cells undergoing autophagy (Figure 6C). […] Moreover, Bax and Bcl-2 expressions were measured by western blot analysis of whole cell lysates.
(§4) To investigate the role of ROS in complex 3-induced cell death, the level of intracellular H2O2 was measured. […] Exposure of A549 cells to NAC reduced levels of LC3-II from 2.3- to 1.5-folds (Figure 8B). […] In parallel, the complex 3-induced increase ratio of Bax/Bcl-2 was suppressed by NAC (Figure 8E).
Flow cytometry with acridine orange staining as described in a previous study was used to detect and quantify the AVOs, one of the characteristicsof autophagy. At the end of individual experiments, A549 cells were collected in phenol red-free RPMI 1640 medium. Green (FL-1) and red (FL-3) fluorescences of acridine orange were measured using a flow cytometer and CellQuest software (Becton Dickinson, San Jose, CA). The sum of the upper-left and upper-right quadrants of the cytogram was used to estimate the percentage of cells undergoing autophagy.

[7] = system: LC3-II; assay: Western blot of LC3-II
Description: as §3, §4
Lysates were centrifuged at 12,000 g for 0.5 h at 4°C. The concentrations of total proteins were measured using the BCA assay method with Varioskan spectrofluorometer and spectrophotometer (Thermo, Waltham, MA) at 562 nm. Protein (20–100 μg) prepared from the indicated cells was loaded per lane and electrophoresed in 8% or 10% sodium dodecyl sulfate polyacrylamide gel electrophoresis (SDS-PAGE), and then transferred onto polyvinylidene difluoride (PVDF) Immobilon-P membrane (Bio-Rad, USA) using a transblot apparatus (Bio-Rad, USA). The membranes were blocked with 5% (w/v) non-fat milk at 0.5 h at 37°C, followed by overnight incubation at 4°C with primary antibodies diluted in PBST. After washing with PBST, the membranes were incubated for 1 h with an IRDye´800 conjugated secondary antibody diluted 1:20000 in PBST, and the labeled proteins were detected with an Odyssey Scanning System (Li-COR., Lincoln, Nebraska, USA).

[8] = A549, 10 μM complex 18 h, without NAC
[9] = A549, 5 mM NAC 2 h pretreatment then 10 μM complex 18 h

SMILES: CC(C)C[NH+]1[C@@H]2CCCC[C@H]2[NH+](CC(C)C)[Pt-2]12[O]C(=O)CC(=O)[O]2 (some centres unmarked) [Complex 3]
- phosphorylation of XRCC1 [1]: suppression of phosphorylation of XRCC1 compared with oxaliplatin
- co-localization of MDC1/Aprataxin to the damaged DNA [2]: dramatically decrease in the co-localization of MDC1/Aprataxin
- IC50 [3]: 32.5 ± 2.9 µM
- γ-H2AX [4]: obvious increases in γ-H2AX
- colony formation [5]: significantly reduced colony formation
- percentage of autophagy [6, 8]: 42.5%
- increase in cells undergoing autophagy ([6]; A549, 10 μM, 24 h): 4.5 folds
- percentage of autophagy [6, 9]: 11.8%
- levels of LC3-II [7, 8]: 2.3 folds
- level of LC3-II ([7]; A549, 10 μM, 24 h): 2.5 folds
- levels of LC3-II [7, 9]: 1.5 folds

From article PMC5458179, “Oxidative DNA double strand breaks and autophagy in the antitumor effect of sterically hindered platinum(II) complexes in NSCLCs” (Oncotarget, 2017)
